pEC50: −log10 of the molar value. Several values for one entry are separate records, joined by “and”; a condition that tells them apart may be missing. Equal entries are not always repeated.
Target: T1, sGC enzyme (Homo sapiens, UniProt Q02108+Q02153)
T1 construct: incorporated into these cells detect cGMP formed by the compounds stimulating the sGC enzyme; host or cells: HEK293 cells stably expressing GloSensor 40F cGMP biosensor
T1 sequence (Q02153 1-619): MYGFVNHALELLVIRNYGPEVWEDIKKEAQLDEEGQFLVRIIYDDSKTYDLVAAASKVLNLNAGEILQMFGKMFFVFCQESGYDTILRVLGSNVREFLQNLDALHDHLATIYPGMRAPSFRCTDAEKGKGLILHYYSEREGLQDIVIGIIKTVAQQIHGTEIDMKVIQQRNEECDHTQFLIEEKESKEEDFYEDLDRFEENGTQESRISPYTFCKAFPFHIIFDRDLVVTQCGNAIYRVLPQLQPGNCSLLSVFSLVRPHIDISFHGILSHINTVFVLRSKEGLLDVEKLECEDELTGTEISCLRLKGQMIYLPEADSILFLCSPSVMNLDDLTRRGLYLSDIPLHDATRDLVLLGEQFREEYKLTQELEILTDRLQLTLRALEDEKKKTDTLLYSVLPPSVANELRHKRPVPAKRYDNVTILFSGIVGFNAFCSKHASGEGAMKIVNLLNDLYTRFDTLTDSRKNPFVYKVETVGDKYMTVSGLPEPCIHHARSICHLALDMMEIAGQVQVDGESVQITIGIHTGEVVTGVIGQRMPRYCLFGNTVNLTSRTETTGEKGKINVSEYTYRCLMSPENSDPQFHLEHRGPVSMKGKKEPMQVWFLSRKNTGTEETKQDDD
T1 sequence (Q02108 1-690): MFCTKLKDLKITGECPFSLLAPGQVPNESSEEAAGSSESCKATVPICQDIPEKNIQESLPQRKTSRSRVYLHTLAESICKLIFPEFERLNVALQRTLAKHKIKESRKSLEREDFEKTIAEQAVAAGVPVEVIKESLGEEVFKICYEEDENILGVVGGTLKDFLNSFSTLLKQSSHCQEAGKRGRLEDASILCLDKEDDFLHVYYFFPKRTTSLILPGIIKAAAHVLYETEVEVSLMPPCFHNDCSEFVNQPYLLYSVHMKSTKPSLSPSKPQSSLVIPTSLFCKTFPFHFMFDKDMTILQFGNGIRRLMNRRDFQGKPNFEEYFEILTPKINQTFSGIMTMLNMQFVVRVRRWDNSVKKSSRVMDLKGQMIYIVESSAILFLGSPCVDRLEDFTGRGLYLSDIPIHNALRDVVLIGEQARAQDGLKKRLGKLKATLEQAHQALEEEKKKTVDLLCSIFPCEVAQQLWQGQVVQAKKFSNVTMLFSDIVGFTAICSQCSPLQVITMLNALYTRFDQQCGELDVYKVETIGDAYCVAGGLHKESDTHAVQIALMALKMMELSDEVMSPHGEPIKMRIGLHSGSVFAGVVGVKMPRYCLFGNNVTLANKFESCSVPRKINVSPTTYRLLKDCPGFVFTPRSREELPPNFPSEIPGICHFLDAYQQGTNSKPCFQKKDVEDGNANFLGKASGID
Assay: cGMP GloSensor cell-based assay, 384-well format
Settings: HEK293 cells expressing GloSensor 40F cGMP; 10 μM DETA-NONOate; normalized to 30 μM Compound Y; compounds in Table IA; read-out: Glo-sensor AbsEC50
From the text: Human embryonic kidney cells (HEK293) cells expressing GloSensor™ 40F cGMP (Part No: CS182801, Promega) were used to evaluate the activity of test compounds. The luminescent biosensors (engineered luciferase) that were incorporated into these cells detect cGMP formed by the compounds stimulating the sGC enzyme and emit luminescence.
cGMP GloSensor cells were maintained in Dulbecco's Modification of Eagle's Medium (DMEM) supplemented with fetal bovine serum (FBS, 10% final) and hygromycine (200 ug/ml). […] Cells were incubated overnight at 37° C. in a humidified chamber with 5% CO2. The next day, medium was removed and cells were replaced with 40 ul/well of GloSensor™, 2 mM (Promega Cat No E1291). Cells were treated for 90 minutes at 25° C. to allow the substrate to equilibrate in the cells. […] For endpoint SAR screening, data were collected after 55 min incubation at room temperature.
Data were fit using a 4-parameter fit (log(agonist) vs. response—variable slope) using GraphPad Prism Software v.5. n=2 for all compounds. […] Compounds failing to elicit a minimum response of 50% are reported as >30 μM or ND.

Question: How did the pEC50 turn out when OC1(c2n[nH]c(-c3nn(Cc4ccccc4F)c4ncccc34)n2)CC1 [Compound I-104, 1-(5-(1-(2-Fluorobenzyl)-1H-pyrazolo[3,4-b]pyridin-3-yl)-1H-1,2,4-triazol-3-yl)cyclopropanol] was run?
Answer: > 7.00

Question: With Cc1ccc2c(-c3nc(C(F)(F)F)n[nH]3)nn(Cc3cccc(F)c3F)c2n1 [Compound I-85, 1-(2,3-Difluorobenzyl)-6-methyl-3-(3-(trifluoromethyl)-1H-1,2,4-triazol-5-yl)-1H-pyrazolo[3,4-b]pyridine] as the compound, how does the pEC50 read?
Answer: > 7.00

Question: CC(C)(C)c1n[nH]c(-c2nn(Cc3ccccc3F)c3ncccc23)n1 [Compound I-37, 3-(3-(tert-Butyl)-1H-1,2,4-triazol-5-yl)-1-(2-fluorobenzyl)-1H-pyrazolo[3,4-b]pyridine] was tested. Which pEC50 did it give?
Answer: > 7.00

Question: Fc1ccccc1Cn1nc(-c2nc(N3CC(F)(F)C3)n[nH]2)c2cccnc21 [Compound I-88, 3-(3-(3,3-difluoroazetidin-1-yl)-1H-1,2,4-triazol-5-yl)-1-(2-fluorobenzyl)-1H-pyrazolo[3,4-b]pyridine] was tested. Which pEC50 did it give?
Answer: < 6.00

Question: How did the pEC50 turn out when CC(O)c1n[nH]c(-c2nn(Cc3ccccc3F)c3ncccc23)n1 (stereo not shown) [Compound I-107, 1-(5-(1-(2-Fluorobenzyl)-1H-pyrazolo[3,4-b]pyridin-3-yl)-1H-1,2,4-triazol-3-yl)ethanol] was run?
Answer: > 7.00

Question: With Cc1ncc(Cn2nc(-c3nc(C(F)(F)F)n[nH]3)c3ccc(Cl)cc32)cn1 [Compound I-22, 6-Chloro-1-((2-methylpyrimidin-5-yl)methyl)-3-(3-(trifluoromethyl)-1H-1,2,4-triazol-5-yl)-1H-indazole] as the compound, how does the pEC50 read?
Answer: > 7.00

Question: How did the pEC50 turn out when Fc1cc(F)cc(Cc2nn(-c3nc(C(F)(F)F)n[nH]3)c3cccnc23)c1 [Compound I-121, 3-(3,5-Difluorobenzyl)-1-(3-(trifluoromethyl)-1H-1,2,4-triazol-5-yl)-1H-pyrazolo[4,3-b]pyridine] was run?
Answer: 6.00 to 7.00

Question: With NC(=O)c1n[nH]c(-c2nn(Cc3ccccc3F)c3ncccc23)n1 [Compound I-40, 5-(1-(2-fluorobenzyl)-1H-pyrazolo[3,4-b]pyridin-3-yl)-1H-1,2,4-triazole-3-carboxamide] as the compound, how does the pEC50 read?
Answer: 6.00 to 7.00

Question: With Fc1ccccc1Cn1nc(-c2nc(C3CNC3)n[nH]2)c2cccnc21 [Compound I-73, 3-(3-(azetidin-3-yl)-1H-1,2,4-triazol-5-yl)-1-(2-fluorobenzyl)-1H-pyrazolo[3,4-b]pyridine] as the compound, how does the pEC50 read?
Answer: < 6.00 and > 7.00

Question: Fc1ccccc1Cn1nc(-c2nc(NCCC(F)(F)F)n[nH]2)c2cccnc21 [Compound I-89] was tested. Which pEC50 did it give?
Answer: > 7.00

Question: With COc1n[nH]c(-c2nn(Cc3ccccc3F)c3ncccc23)n1 [Compound I-82, 1-(2-fluorobenzyl)-3-(3-methoxy-1H-1,2,4-triazol-5-yl)-1H-pyrazolo[3,4-b]pyridine] as the compound, how does the pEC50 read?
Answer: 6.00 to 7.00

Question: How did the pEC50 turn out when CC(C)(O)c1n[nH]c(-c2nn(Cc3ccccc3F)c3ncccc23)n1 [Compound I-94, 2-(5-(1-(2-fluorobenzyl)-1H-pyrazolo[3,4-b]pyridin-3-yl)-1H-1,2,4-triazol-3-yl)propan-2-ol] was run?
Answer: 6.00 to 7.00

Question: With Fc1ccccc1Cn1nc(-c2nc(C(F)(F)F)n[nH]2)c2nccnc21 [Compound I-98, 1-(2-Fluorobenzyl)-3-(3-(trifluoromethyl)-1H-1,2,4-triazol-5-yl)-1H-pyrazolo[3,4-b]pyrazine] as the compound, how does the pEC50 read?
Answer: < 6.00

Question: COCCC(O)c1n[nH]c(-c2nn(Cc3ccccc3F)c3ncccc23)n1 (stereo not shown) [Compound I-116, 1-(5-(1-(2-fluorobenzyl)-1H-pyrazolo[3,4-b]pyridin-3-yl)-1H-1,2,4-triazol-3-yl)-3-methoxypropan-1-ol] was tested. Which pEC50 did it give?
Answer: 6.00 to 7.00

Question: FCCN1CC(c2n[nH]c(-c3nn(Cc4ccccc4F)c4ncccc34)n2)C1 [Compound I-97, 1-(2-Fluorobenzyl)-3-(3-(1-(2-fluoroethyl)azetidin-3-yl)-1H-1,2,4-triazol-5-yl)-1H-pyrazolo[3,4-b]pyridine] was tested. Which pEC50 did it give?
Answer: 6.00 to 7.00

Question: With CN(C)c1n[nH]c(-c2nn(Cc3ccccc3F)c3ncccc23)n1 [Compound I-90] as the compound, how does the pEC50 read?
Answer: 6.00 to 7.00

Question: How did the pEC50 turn out when Fc1ccccc1Cn1nc(-c2nc(C3CCOCC3)n[nH]2)c2cccnc21 [Compound I-78, 1-(2-Fluorobenzyl)-3-(3-(tetrahydro-2H-pyran-4-yl)-1H-1,2,4-triazol-5-yl)-1H-pyrazolo[3,4-b]pyridine] was run?
Answer: < 6.00

Question: With Nc1n[nH]c(-c2nn(Cc3ccccc3F)c3ncccc23)n1 [Compound I-84, 5-(1-(2-fluorobenzyl)-1H-pyrazolo[3,4-b]pyridin-3-yl)-1H-1,2,4-triazol-3-amine] as the compound, how does the pEC50 read?
Answer: 6.00 to 7.00

Question: Fc1cccc(Cn2nc(-c3nc(C(F)F)n[nH]3)c3cccnc32)c1F [Compound I-67, 1-(2,3-Difluorobenzyl)-3-(3-(difluoromethyl)-1H-1,2,4-triazol-5-yl)-1H-pyrazolo[3,4-b]pyridine] was tested. Which pEC50 did it give?
Answer: > 7.00

Question: FCc1n[nH]c(-c2nn(Cc3ccccc3F)c3ncccc23)n1 [Compound I-58, 1-(2-Fluorobenzyl)-3-(3-(fluoromethyl)-1H-1,2,4-triazol-5-yl)-1H-pyrazolo[3,4-b]pyridine] was tested. Which pEC50 did it give?
Answer: > 7.00

Question: O=C(N1CC(c2n[nH]c(-c3nn(Cc4ccccc4F)c4ncccc34)n2)C1)C(F)(F)F [Compound I-75] was tested. Which pEC50 did it give?
Answer: 6.00 to 7.00

Question: Fc1ccccc1Cn1nc(-c2nc(C3(c4ccccc4)CC3)n[nH]2)c2cccnc21 [Compound I-81, 1-(2-Fluorobenzyl)-3-(3-(1-phenylcyclopropyl)-1H-1,2,4-triazol-5-yl)-1H-pyrazolo[3,4-b]pyridine] was tested. Which pEC50 did it give?
Answer: < 6.00

Question: How did the pEC50 turn out when Fc1ccccc1Cn1nc(-c2nc(OCC(F)(F)F)n[nH]2)c2cccnc21 [Compound I-83, 1-(2-Fluorobenzyl)-3-(3-(2,2,2-trifluoroethoxy)-1H-1,2,4-triazol-5-yl)-1H-pyrazolo[3,4-b]pyridine] was run?
Answer: < 6.00

Question: With Fc1ccccc1Cn1nc(-c2nc(C3CC3)n[nH]2)c2cccnc21 [Compound I-68, 3-(3-Cyclopropyl-1H-1,2,4-triazol-5-yl)-1-(2-fluorobenzyl)-1H-pyrazolo[3,4-b]pyridine] as the compound, how does the pEC50 read?
Answer: > 7.00

Question: How did the pEC50 turn out when Cc1ncc(Cn2nc(-c3nc(C)n[nH]3)c3cccnc32)cn1 [Compound I-113, 3-(3-Methyl-1H-1,2,4-triazol-5-yl)-1-((2-methylpyrimidin-5yl)methyl)-1H-pyrazolo[3,4-b]pyridine] was run?
Answer: > 7.00

Question: With CC1(c2n[nH]c(-c3nn(Cc4ccccc4F)c4ncccc34)n2)CC1 [Compound I-63, 1-(2-Fluorobenzyl)-3-(3-(1-methylcyclopropyl)-1H-1,2,4-triazol-5-yl)-1H-pyrazolo[3,4-b]pyridine] as the compound, how does the pEC50 read?
Answer: > 7.00

Same assay, conditions: HEK293 cells expressing GloSensor 40F cGMP; 10 μM DETA-NONOate; normalized to 30 μM Compound Y; compounds in Table IB; read-out: Glo-sensor Abs EC50

Question: Cc1ncc(Cc2nc(-c3nc(C(F)(F)F)n[nH]3)n3cc(Cl)cc(F)c23)cn1 [Compound I-27, 6-Chloro-8-fluoro-1-((2-methylpyrimidin-5-yl)methyl)-3-(3-(trifluoromethyl)-1H-1,2,4-triazol-5-yl)imidazo[1,5-a]pyridine] was tested. Which pEC50 did it give?
Answer: < 6.00

Question: Fc1ccccc1Cc1nc(-c2nc(C(F)(F)F)n[nH]2)n2ccncc12 [Compound I-44, 1-(2-Fluorobenzyl)-3-(3-(trifluoromethyl)-1H-1,2,4-triazol-5-yl)imidazo[1,5-a]pyrazine] was tested. Which pEC50 did it give?
Answer: < 6.00
